# Measured values: article PMC7225193, “An Integrated Dialysis Pharmacometric (IDP) Model to Evaluate the Pharmacokinetics in Patients Undergoing Renal Replacement Therapy” (Pharmaceutical Research, 2020)
# Key:
# [1] = In vitro RRT study of teicoplanin in bovine blood, evaluated with the IDP model; assay type: in vitro ADME
# Experimental: For all population pharmacokinetic modelling work in this study, NONMEM® (ICON development service, Gaithersburg, MD, version 7.4) was used. The inter-individual variability of the pharmacokinetic parameters was assumed to be log-normally distributed. For the intra-individual, residual variability an additive, proportional or combined error model was used. In the clinical data examples, models were evaluated by graphical and numerical criteria (goodness of fit plots, visual predictive checks and drop in objective function value (dOFV)). The LLP-SIR (log-likelihood-profiling based sampling-importance-resampling) method was employed for the assessment of parameter uncertainty, since a small number of subjects or cases was investigated.
# An in vitro study investigating RRT of teicoplanin in bovine blood was evaluated using the IDP model. 51 pre-filter plasma samples and 45 post-filter plasma samples were included. 45 effluent samples were collected which were all below the lower limit of quantification (5 mg/L), which was considered in the analyses by comparison to simulations after estimation. A blood concentration of 25 mg/L using a volume of 2.2–2.5 L was studied. The blood flow rate was set to 250 mL/min and the dialysate flow rate to 500 mL/min without filtration. In five experiments, a polysulphone membrane (n = 3: FX80, Fresenius Medical Company, Austria, n = 2: F60 S, Fresenius Medical Company, Austria), and in one experiment a triacetate membrane (Ni 21 e, Surflux-21E, Nipro Corporation, Japan) was used. The IDP model was used to describe the RRT clearance and adsorption to the dialysis membranes was evaluated.
# [2] = patients with normal serum albumin concentrations; cited from earlier work
# Description: Protein binding plays an important role when the RRT clearance is only estimated based on drug characteristics, since it is assumed that only unbound drug can be dialyzed or filtrated. The integrated model allows direct assessment of the RRT clearance without assumptions on the efficacy in dialysis and filtration processes based on the unbound fraction. Moreover, elimination processes, that are independent of dialysis and filtration, e.g. adsorption to the dialysis membrane, can be quantified. RRT clearance of highly protein bound drugs, e.g. teicoplanin presenting a protein binding of >90% in ...
# [3] = cited from earlier work
"CLRRT ([1]; bovine blood, 25 mg/L, blood flow 250 mL/min, dialysate flow 500 mL/min, no filtration, IDP model) [mL/min]","FractionAdsorbed (fraction of the RRT clearance mediated via adsorption) ([1]; bovine blood, IDP model)","RRT clearance ([1]; bovine blood, IDP model, changing over time) [L/h]","Ads. capacity polysulfone FX80/F60S ([1]; polysulphone membranes, five experiments) [mg]","Adsorption capacity triacetate ([1]; triacetate membrane Ni 21 e, n = 1 experiment) [mg]",Molecule,protein binding [2] [%],degradation half-life in stabilizing conditions [3] [h]
76.5,0.891,4.59,31.2,8.6,teicoplanin,> 90,
,,,,,"C[C@@H](O)[C@H]1C(=O)N2C(C(=O)O)=C(S[C@@H]3CN[C@H](CNS(N)(=O)=O)C3)[C@H](C)[C@H]12 [Doripenem, doripenem]",,> 100
